Experimental data taken from patent US8962647B1, “Conjugate of polyethylene gylcol and naloxone and pharmaceutical composition and use thereof” (Jenkem Technology Co., Ltd. (Tianjin), priority 2012, dated 2015).

Target: T1, MOR receptors (Homo sapiens, UniProt P35372)
T1 construct: expressed in transfected cells; host or cells: CHO cells
Test: cell-based
Type: cell-based
Details: CHO cells stably expressing MOR/Gα16; calcium flux caused by known agonist DAMGO; fluorescence at 525 nm
From the text: A cell line co-transfected with MOR and Gα16 is established, such that activation of receptors can activate Ga16 protein, which in turn activates phospholipase C (PLC) to generate IP3 and DAG. IP3 can bind to IP3 receptors on endoplasmic reticulum and mitochondria in the cells, thereby triggering the release of intracellular calcium. Therefore, detection of intracellular calcium levels can be employed as a measure for detecting the activation state of MOR. Fluo-4/AM is a calcium fluorescent probe indicator for measuring calcium ions. It is a non-polar liposoluble compound, which, upon entering a cell and by the action of lipolytic enzymes, releases Fluo-4 while the AM moiety is dissociated. As a polar molecule, Fluo-4 cannot easily pass through the lipid bilayer membrane, thus it is retained in the cells for a long duration. Eventually, the level of activation of Gα proteins is reflected by measuring the intensity of fluorescence that is excited.
1. inoculating CHO cells stably expressing MOR/Gα16 in a 96-well plate and incubating the same overnight;
2. removing the medium from the wells inoculated with cells, adding freshly prepared dye (40 μl/well), and incubating for 40 minutes in a thermostatic incubator of 37° C.;
3. diluting the test substances with a calcium buffer and homogenizing; […]

T1 sequence (P35372 whole entry): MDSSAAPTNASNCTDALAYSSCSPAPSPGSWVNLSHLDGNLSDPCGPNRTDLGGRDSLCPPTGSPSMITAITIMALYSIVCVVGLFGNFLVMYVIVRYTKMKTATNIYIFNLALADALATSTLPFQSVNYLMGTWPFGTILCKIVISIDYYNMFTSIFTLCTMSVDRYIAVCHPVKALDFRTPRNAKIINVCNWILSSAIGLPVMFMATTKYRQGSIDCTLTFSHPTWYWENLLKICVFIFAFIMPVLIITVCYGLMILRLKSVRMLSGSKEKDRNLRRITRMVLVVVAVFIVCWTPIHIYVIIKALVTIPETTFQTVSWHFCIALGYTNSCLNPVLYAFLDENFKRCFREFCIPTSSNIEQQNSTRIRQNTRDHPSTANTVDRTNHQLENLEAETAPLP

Structure (SMILES) | IC50 [nM]
C=CCN1CC[C@]23c4c5ccc(O)c4O[C@H]2[C@@H](OCCOCCOCCOCCO[C@H]2CC[C@@]4(O)[C@H]6Cc7ccc(O)c8c7[C@@]4(CCN6CC=C)[C@H]2O8)CC[C@@]3(O)[C@H]1C5 [(α,α)-NAL24, double-end substituted tetraethylene glycol-naloxone] | 7.16
COC(=O)/C=C/C(=O)N[C@@H]1CC[C@@]2(O)[C@H]3Cc4ccc(O)c5c4[C@@]2(CCN3CC2CC2)[C@H]1O5 [Beta-FNA] | 2.62
